Source: patent US10851367B2, “Tissue-specific genome engineering using CRISPR-Cas9” (Pfizer Inc., priority 2015, dated 2020)

Target: T1, ASGPR (Homo sapiens, UniProt P07306)
T1 sequence (P07306 148-291 limits assumed): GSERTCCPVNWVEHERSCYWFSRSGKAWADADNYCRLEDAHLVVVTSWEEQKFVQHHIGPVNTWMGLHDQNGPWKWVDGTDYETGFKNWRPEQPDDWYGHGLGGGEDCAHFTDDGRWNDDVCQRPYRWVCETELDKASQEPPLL
Test: SPR binding measurements for ASGPr ligands (Biacore 3000)
Conditions: biotinylated ASGPR immobilized, 25° C., each run separately reported or n and std dev noted
Procedure: SPR Binding Measurements for ASGPr Ligands:
All SPR measurements with compounds were performed using a Biacore 3000 (GE Healthcare) at 25° C. Biotinylated ASGPR was immobilized typically at 2000-3000 resonance units (Ru) using either SA sensor chips (GE Healthcare) or custom sensor chips with Neutravidin (Pierce Biochemical) immobilized by standard amine coupling to CM5 sensor chips (GE Healthcare). The running buffer was HBS (10 mM HEPES, 150 mM NaCl), 20 mM CaCl2, 0.01% p20, 3% DMSO or 50 mM tris, 150 mM NaCl, 50 mM CaCl2, 0.01% p20, 3% DMSO pH 7.5. Compounds were diluted into running buffer at a concentration of 900 uM and serially diluted 3 fold to 3.7 uM. Compound solutions were injected at 50 ul/min for 1 min followed by a 1 min dissociation in duplicate for each concentration. For the multimeric conjugates (dimers, trimers), the conjugates were diluted in running buffer to concentrations of 100 nM or 10 nM and serially diluted. Conjugates were injected for 2 min and off rates were detected for 300 or 600 sec. After completion of off phase data the compounds were displaced using an injection of 900 uM GalNAc returning the receptor surface to the free state. […] KDs were determined by fitting the steady state binding responses for the compounds and single conjugated molecules in Scrubber2. […]

CN(C(=O)OC(C)(C)C)[C@H]1[C@H]2OC[C@](CO)(O2)[C@H](O)[C@@H]1O [Compound 31, tert-butyl [(1S,2R,3R,4R,5S)-2,3-dihydroxy-1-(hydroxymethyl)-6,8-dioxabicyclo[3.2.1]oct-4-yl]methylcarbamate]
Kd: 12.3 µM
